Experimental data published in US20200289482A1, “CYSTIC FIBROSIS TRANSMEMBRANE CONDUCTANCE REGULATOR MODULATORS FOR TREATING AUTOSOMAL DOMINANT POLYCYSTIC KIDNEY DISEASE” (The Johns Hopkins University, priority 2017, published 2020).

How the values were obtained:
[1] = test system: Hsp90; assay: Western blot of Hsp90 in kidney tissue lysates; format: in vivo, mouse; conditions: cyst induced pkd−/− mice, VX-809 30 mg/kg BW
Experimental: FIG. 7A, FIG. 7B, FIG. 7C, FIG. 7D, FIG. 7E, and FIG. 7F show chaperone expression is altered in mice by VX-809. (FIG. 7A-FIG. 7B) Representative Western blot images of HSP27, 70, 90 and HSP40 in lysates of kidney tissue from no cyst induced (ND), cyst induced with Doxycycline (D) or cyst induced pkd−/− mice treated with VX-809 (D+VX-809) 30 mg/kg BW. (FIG. 7C, FIG. 7D, FIG. 7E, and FIG. 7F) Columns represent averages±standard errors of HSP27, 70, 90 and HSP40 expression. Data were analyzed by non-parametric t-test. n=4 for each treated and control groups. Black lines between lanes represent representative experiments from the same gel. *P<0.05; **P<0.01; To facilitate their growth in the kidney, cysts have developed an altered network of proteins that most likely serves to protect them from stress (34). Next, it was determined whether VX-809 would alter the levels of Hsps in pkd−/− mice and in PN cells. […] Hsp 27, 70 and 90 are all elevated in cystic kidneys compared to normal controls. […] There is no change in Hsp 40. […] Both sets of data are consistent with an alteration in the heat shock response to cyst growth.

[2] = test system: Ero1; assay: Western blot of ER stress marker Ero1 in kidney tissue; format: in vivo, mouse; conditions: cyst induced pkd−/− mice, VX-809 30 mg/kg BW
Experimental: FIG. 11A. FIG. 11B, FIG. 11C, FIG. 11D, and FIG. 11E show expression of ER stress markers GRP78, ErO1, and GADD in Pkd1^−/− mice treated with VX-809. (FIG. 11A & FIG. 11D) Representative Western blot images of GRP78, ErO1, and GADD in lysates of kidney tissue from no cyst induced (ND), cyst induced with doxycycline (D) or cyst induced pkd−/− mice treated with VX-809 (D+VX-809) 30 mg/kg BW. (FIG. 11B, FIG. 11C and FIG. 11E) Columns represent averages±standard errors of GRP78, ErO1, and GADD153 expression. Data were analyzed by non-parametric t-test. n=4 for each treated and control groups. Black lines between lanes represent representative experiments from the same gel but loaded in different lanes. **P<0.01, ***P<0.001;
Given that VX-809 alters an ensemble of Hsps, it was evaluated whether VX-809 alters proteins associated with ER stress. To address this question, the levels of three ER stress-associated proteins were measured, 78-kDa glucose-regulated protein (GRP78), ER oxidoreductin 1 (Ero1) and DNA damage-inducible protein 3 (GADD153), also known as C/EBP homologous protein (CHOP) (37). The results are depicted in FIG. 11 show no changes in GRP78 or Ero1 in response to VX-809.

[3] = test system: cAMP in PN cells; assay: Cyclic AMP enzyme immunoassay in cells; format: cell-based, mouse
Experimental: FIG. 4A, FIG. 4B, FIG. 4C, FIG. 4D, and FIG. 4E show (FIG. 4A-FIG. 4B) cAMP levels are reduced by VX-809. (FIG. 4A) cAMP levels in mouse tissue were reduced by VX-809. The kidney samples (n=6) analyzed were taken from those depicted in FIG. 1. (FIG. 4B) Confluent PN and PH cells were treated with VX-809 (10 μM) or DMSO for 16 h and then treated with forskolin (100 μM) for 30 min before the cells were harvested for the assay. Columns represent means±SEM. Statistical analysis was performed using a two-tailed Student's t-test. Each set of data is from three individual wells; Note that resting cAMP is greater in PN vs PH cells as previously shown (25). Also note that forskolin caused a large increase in cAMP. A smaller increase occurred with IBMX. However, the increase induced by forskolin alone was similar to that by IBMX plus forskolin. […] (FIG. 4C, FIG. 4D, and FIG. 4E) Adenylyl cyclase expression. (FIG. 4C) Western blot showing the expression of adenylyl cyclase (AC) 6 and AC3 in treated and control PN cells. (FIG. 4D-FIG. 4E) Columns represent means±SEM of the AC3 and AC6 expression. The data were analyzed by non-parametric t-test. The experiment was repeated four times. For all graphs, *P<0.05, **P<0.01, and ***P<0.001;
It has been shown previously in both animal and cell culture models of ADPKD that cells lacking functional PC1 have elevated cAMP levels when compared to normal (24). To assess the effect of CFTR correctors, cAMP activity was measured in PC1 conditional knockout mouse kidneys and in PN cells that were either left untreated or treated with VX-809. […] Cells were treated with forskolin, which increased cAMP levels drastically (FIG. 4B). […] Treating PN cells with forskolin or IBMX (FIG. 4B) increased the cAMP activity by ˜10-fold.
Confluent cells were treated with VX-809 (10 μM) or DMSO for 16 h before being harvested for assay. Cyclic AMP levels were measured with a direct cAMP Enzyme Immunoassay Kit (Sigma, # CA200) according to the manufacturer's protocol. The results are expressed as pmole/ml. Statistical analysis was performed using a two-tailed Student's t-test.

[4] = test system: GADD153; assay: Immunostaining for GADD153 in mouse kidney sections; format: in vivo; conditions: PN21 mice, VX-809 vs DMSO
From the text: FIG. 12A, FIG. 12B, and FIG. 12C show GADD153 expression in kidneys of Pkd1^fl/fl; Pax8^rtTA; TetO-cre mice. Immunoflourescence images representing the GADD expression (green) in DMSO (FIG. 12A) or VX-809 (FIG. 12B) treated PN21 Pkd1^fl/fl in mouse. Columns (FIG. 12C) represent % area of GADD immunopositive (green) cells in DMSO or VX-809 treated PN21 Pkd1^fl/fl in mouse kidney sections. Data are expressed as mean 1+1 SEM of DMSO (vehicle)-treated (n=4) and VX-809-treated (n=4) mice. Statistical analysis was performed using a 2-tailed Student t-test. DMSO, dimethyl sulfoxide. Kidneys were fixed in 4% paraformaldehyde as described (62). Used here was the GADD153 antibody (Sc-7351), goat antirabbit (A21429, AlexaFluor 555, 1:1,000; Life Technologies, Carlsbad, Calif.) and DAPI (H-1200; Vector Laboratories, Burlingame, Calif.). […] Cells positive for GADD153 and the total number of cells were measured with ImageJ. The results are expressed as percentages;
Given that VX-809 alters an ensemble of Hsps, it was evaluated whether VX-809 alters proteins associated with ER stress. To address this question, the levels of three ER stress-associated proteins were measured, 78-kDa glucose-regulated protein (GRP78), ER oxidoreductin 1 (Ero1) and DNA damage-inducible protein 3 (GADD153), also known as C/EBP homologous protein (CHOP) (37). […]

Substance: lumacaftor [VX-809]
- Hsp90 expression in kidneys [1]: significantly less expression
- Ero1 expression [2]: no changes
- forskolin-induced increase in cAMP ([3]; VX-809 10 μM 16 h, then forskolin 100 μM 30 min): reduced the forskolin-induced increase in cAMP
- resting cAMP levels in PN cells ([3]; VX-809 10 μM, 16 h vs untreated PN cells): significantly decreased the cAMP levels
- forskolin- or IBMX-induced increases in adenylyl cyclase activity ([3]; forskolin in combination with IBMX, data bars 5 and 9 FIG. 4B): did not affect the forskolin- or IBMX-induced increases in adenylyl cyclase activity
- GADD153 immunostaining in kidneys [4]: strong reduction
